Reference: patent US20230172894A1, “COMBINATION TREATMENT FOR FUMARATE-RELATED DISEASES” (IMCYSE SA, priority 2020, published 2023)
Like-named read-outs stand apart in the source and are kept apart here. No end group written: not given here.

What was measured:
[1] = system: experimental auto-immune encephalomyelitis (EAE) development in mice; test: Example 3: serum neurofilament light (NF-L) levels in EAE mice; format: in vivo, female C57BL/6 mice; settings: Day 28 serum, vs negative control
Protocol: On Day 28, blood was collected from all mice into gel clot activator tubes and allowed to clot at room temperature for ˜30 minutes. Blood is then centrifuged at ˜10000 g for 5 minutes. Serum was transferred into Eppendorf tubes and stored at −80° C. until shipment to Quanterix™. Serum Neurofilament light (NF-L) protein levels were quantified using Simoa® NF-light Advantage kit as described in example 1.

[2] = system: experimental auto-immune encephalomyelitis (EAE) development in mice; settings: Example 3; for mice died in group: 16 mice per group; for disease onset: peptide 30 μg/Alum s.c. days 4, 9, 14, 19, BG-12 100 mg/kg p.o. BID days 0 to 27; for disease onset / AUC (area under the curve) of EAE scores / MMS (mean maximal score) / end score (clinical EAE score 0-5): vs negative control
Source text: Example 3: Effect of the therapeutic administration of an immunogenic peptide comprising a MOG35-55 MHCII T cell epitope linked to a KCRC (SEQ ID NO: 65) or KCRPYC (SEQ ID NO: 84) oxidoreductase motif in combination with dimethyl fumarate (BG-12, […]™) on experimental auto-immune encephalomyelitis (EAE) development in mice.
The study used a total of 128 female C57BL/6 mice (Taconic Biosciences, 9 weeks old on Day 0). Mice were acclimated for 7 days prior to the first injection. Mice were assigned to groups in a balanced manner to achieve similar average weight across the groups at the start of the study.
Treatment 1 was administered once on each of the days indicated in Table 4, s.c., at a volume of 0.05 mL/site, each mouse receiving injection at two sites, for a total of 0.1 mL/mouse/dosing day. IMCY-0189 (CXXC oxidoreductase motif, IMCY-0453 (CXC oxidoreductase motif) or IMCY-0455 (CXXXC oxidoreductase motif) peptide total dose was 30 μg per administration.
(§1) BG-12 was dosed at 100 mg/kg.
(§2) All dosing were done at the same time (+/−1 hour) each dosing day. For the BID groups there were no less than 10 and no more than 14 hours between doses.
(§3) (SEQ ID NO: 266), comprising an oxidoreductase motif KCRC (SEQ ID NO: 65), a linker GW, a murine Myelin Oligodendrocyte Glycoprotein (MOG35-55) MHCII T cell epitope […] (SEQ ID NO: 169) and a flanking sequence HLYR (SEQ ID NO: 186) (Smart Bioscience) was solubilized immediately before use. Lyophilized IMCY-0453 was thawed at room temperature for 10 minutes, resuspended in Na Acetate buffer 50 mM NaCl 0.9% pH 5.4 and incubated at room temperature for 10 minutes. Reconstituted peptide was then mixed with Imject™ Alum Adjuvant before injection.
as §3, with “268),” for “266),”, “KCRPYC” for “KCRC”, “84),” for “65),”, “IMCY-0455” for “IMCY-0453”
(§4) Treatment 2 was prepared as described in example 2.
EAE induction, scoring and statistical analysis were performed as described in example
(§5) EAE development was evaluated by comparing clinical EAE readouts for all groups to the negative control (Saline/Vehicle) group.

[3] = system: experimental auto-immune encephalomyelitis (EAE) development in mice; settings: Example 4; 16 mice per group
Source text: Example 4: Effect of the therapeutic administration of an immunogenic peptide comprising a human MOG201-212 MHCII T cell epitope linked to a KHCPYC oxidoreductase motif in combination with dimethyl fumarate (BG-12, […]™) on experimental auto-immune encephalomyelitis (EAE) development in mice.
The study used a total of 96 female C57BL/6 mice (Taconic Biosciences, 9 weeks old on Day 0). Mice were acclimated for 7 days prior to the first injection. Mice were assigned to groups in a balanced manner to achieve similar average weight across the groups at the start of the study.
Treatment 1 was administered once on each of the days indicated in Table 5, s.c., at a volume of 0.05 mL/site, each mouse receiving injection at two sites, for a total of 0.1 mL/mouse/dosing day. IMCY-0189 or P4 peptide total dose was 30 μg per administration.
as §1, §2
Lyophilized immunogenic peptide P4 with the sequence […] (SEQ ID NO: 176), comprising an oxidoreductase motif KHCPYC (SEQ ID NO: 77), a linker VRY, a human Myelin Oligodendrocyte Glycoprotein (MOG201-212) MHCII T cell epitope […] (SEQ ID NO: 165) and a flanking sequence TLFKK (SEQ ID NO: 267) (Smart Bioscience) was solubilized immediately before use. Lyophilized P4 was thawed at room temperature for 10 minutes, resuspended in Na Acetate buffer 50 mM NaCl 0.9% pH 5.4 and incubated at room temperature for 10 minutes. Reconstituted peptide was then mixed with Imject™ Alum Adjuvant before injection.
as §4
EAE induction, scoring and statistical analysis were performed as described in example 2.
as §5

[4] = system: experimental auto-immune encephalomyelitis (EAE) development in mice; settings: Example 2, 16 mice per group
Source text: Example 2: Effect of the therapeutic administration of an immunogenic peptide comprising a MOG35-55 MHCII T cell epitope linked or not to an HCPYC oxidoreductase motif in combination with dimethyl fumarate (BG-12, […]™) on experimental auto-immune encephalomyelitis (EAE) development in mice.
The study used a total of 96 female C57BL/6 mice (Taconic Biosciences, 10 weeks old on Day 0). Mice were acclimated for 14 days prior to the first injection. Mice were assigned to groups in a balanced manner to achieve similar average weight across the groups at the start of the study.
Treatment 1 was administered once on each of the days indicated in Table 3, s.c., at a volume of 0.05 mL/site, each mouse receiving injection at two sites, for a total of 0.1 mL/mouse/dosing day. IMCY-0189 or MOG35-55 peptide total dose was 30 μg per administration.
as §1, §2
Lyophilized mouse MOG35-55 peptide with the sequence […] (SEQ ID NO:205), comprising the mouse Myelin Oligodendrocyte Glycoprotein (MOG35-55) MHCII T cell epitope […] (SEQ ID NO:169), was solubilized immediately before use. Lyophilized MOG35-55 peptide was thawed at room temperature for 10 minutes, resuspended in Na Acetate buffer 50 mM NaCl 0.9% pH 5.4 and incubated at room temperature for 10 minutes. Reconstituted MOG35-55 peptide was then mixed with Imject™ Alum Adjuvant before injection. Note that the positions 35 to 55 refer to the mature protein, i.e. after cleavage of the signal peptide (AA 1-29), defined by SEQ ID NO: 208. In the full-length amino acid sequence of MOG (SEQ ID NO: 184), said peptide would be at positions 64-84.
Lyophilized IMCY-0189 was thawed at room temperature for 10 minutes, resuspended in Na Acetate buffer 50 mM NaCl 0.9% pH 5.4 and incubated at room temperature for 10 minutes. Reconstituted peptide was then mixed with Imject™ Alum Adjuvant before injection.
For Treatment 2, vehicle was 0.5% HPMC, 0.2% Tween 20, and 50 mM citrate buffer at pH 4. BG-12 (Santa Cruz Biotechnology, sc-239774) and was prepared at least every 2 weeks. At each preparation the required amount of BG-12 was weighed out into a mortar and triturated with a pestle. Vehicle was then added in small increments and mixed until the final volume was reached. The material was then vortexed and sonicated in a water bath until a homogeneous suspension was obtained. Formulated BG-12 was stored at 4° C., stirring continuously.
EAE induction, scoring and statistical analysis were performed as described in example 1.
as §5

Compound	serum NF-L levels [1]	mice died in group [2]	disease onset [2]	AUC (area under the curve) of EAE scores [2]	MMS (mean maximal score) [2]	end score (clinical EAE score 0-5) [2]	mice died in group [3]	mice died in group [4]	mice died in group ([4]; listed as MOG35-55/Vehicle)
KCRCGWYRSPFSRVVHLYR [IMCY-0453]	statistically significant reduced NF-L levels	1 mice	statistically significantly improved	statistically significantly improved	statistically significantly improved	statistically significantly improved	–	–	–
CC[C@H](C)[C@H](NC(=O)[C@H](CCCCN)NC(=O)[C@H](Cc1c[nH]c2ccccc12)NC(=O)[C@H](CO)NC(=O)[C@@H]1CCCN1C(=O)[C@@H](NC(=O)[C@H](CCCNC(=N)N)NC(=O)[C@H](CC(C)C)NC(=O)[C@H](Cc1ccccc1)NC(=O)[C@H](Cc1ccc(O)cc1)NC(=O)[C@H](CCCNC(=N)N)NC(=O)[C@@H](NC(=O)[C@H](CS)NC(=O)[C@H](Cc1ccc(O)cc1)NC(=O)[C@@H]1CCCN1C(=O)[C@H](CS)NC(=O)[C@H](Cc1c[nH]cn1)NC(=O)[C@@H](N)CCCCN)C(C)C)C(C)C)C(=O)N[C@H](C(=O)N[C@@H](CC(C)C)C(=O)N[C@@H](Cc1ccccc1)C(=O)N[C@@H](CCCCN)C(=O)N[C@@H](CCCCN)C(=O)O)[C@@H](C)O [P4]	–	–	–	–	–	–	No mice died	–	–
MEVGWYRSPFSRVVHLYRNGK [MOG35-55 peptide]	–	–	–	–	–	–	–	No mice died	2 mice
KCRPYCGWYRSPFSRVVHLYR [IMCY-0455]	statistically significant reduced NF-L levels	1 mice	statistically significantly improved	statistically significantly improved	statistically significantly improved	statistically significantly improved	–	–	–
